# From patent publication US8222278B2, “Treatment of attention-deficit/hyperactivity disorder” (Abbott Laboratories, priority 2008, dated 2012)
# Test system: adults with ADHD
# Assay: Study A: treatment-emergent adverse events (safety dataset)
# Method: During each visit, blood pressure, heart rate, weight, medication accountability and tolerability, and adverse effects were assessed.
# The safety dataset consisted of all subjects who took at least one dose of study drug. The reasons for discontinuation and the treatment-emergent adverse events were summarized by the treatment under which the discontinuation or event was reported.
# Treatment-emergent adverse events were those that began or worsened following the first dose of study drug in Period 1. Adverse event monitoring was conducted at each study visit and until 30 days following discontinuation of study drug. Other routine safety assessments included vital signs, electrocardiograms, physical examinations, brief neurological examinations and laboratory tests.
smiles,measurement,setting,value
"Clc1cc(N2C[C@@H]3CN[C@@H]3C2)cnc1Cl [ABT-894, 3-(5,6-Dichloro-pyridin-3-yl)-1S,5S-3,6-diazabicyclo[3.2.0]heptane]","Headache, number of subjects","ABT-894 4 mg BID, N = 46",4 subjects
same,"Lethargy, % of subjects","ABT-894 4 mg BID, N = 46",(0) %
same,"Lethargy, number of subjects","ABT-894 4 mg BID, N = 46",0 subjects
same,"Muscle Strain, % of subjects","ABT-894 4 mg BID, N = 46",(0) %
same,"Muscle Strain, number of subjects","ABT-894 4 mg BID, N = 46",0 subjects
same,"Nasal congestion, % of subjects","ABT-894 4 mg BID, N = 46",(6.5) %
same,"Nasal congestion, number of subjects","ABT-894 4 mg BID, N = 46",3 subjects
same,"Nausea, % of subjects","ABT-894 4 mg BID, N = 46",(8.7) %
same,"Nausea, number of subjects","ABT-894 4 mg BID, N = 46",4 subjects
same,"Parathesia, % of subjects","ABT-894 4 mg BID, N = 46",(0) %
same,"Parathesia, number of subjects","ABT-894 4 mg BID, N = 46",0 subjects
same,"Sleep disturbances, % of subjects","ABT-894 4 mg BID, N = 46",(4.3) %
same,"Sleep disturbances, number of subjects","ABT-894 4 mg BID, N = 46",2 subjects
same,"Somnolence, % of subjects","ABT-894 4 mg BID, N = 46",(4.3) %
same,"Somnolence, number of subjects","ABT-894 4 mg BID, N = 46",2 subjects
same,"Upper RTI, % of subjects","ABT-894 4 mg BID, N = 46",(0) %
same,"Upper RTI, number of subjects","ABT-894 4 mg BID, N = 46",0 subjects
same,"Vomiting, % of subjects","ABT-894 4 mg BID, N = 46",(2.2) %
same,"Vomiting, number of subjects","ABT-894 4 mg BID, N = 46",1 subjects
same,"Any Adverse Event, % of subjects","ABT-894 4 mg QD, N = 40",(65.0) %
same,"Any Adverse Event, number of subjects","ABT-894 4 mg QD, N = 40",26 subjects
same,"Decreased appetite, % of subjects","ABT-894 4 mg QD, N = 40",(5.0) %
same,"Decreased appetite, number of subjects","ABT-894 4 mg QD, N = 40",2 subjects
same,"Diarrhea, % of subjects","ABT-894 4 mg QD, N = 40",(7.5) %
same,"Diarrhea, number of subjects","ABT-894 4 mg QD, N = 40",3 subjects
same,"Dizziness, % of subjects","ABT-894 4 mg QD, N = 40",(10.0) %
same,"Dizziness, number of subjects","ABT-894 4 mg QD, N = 40",4 subjects
same,"Dry mouth, % of subjects","ABT-894 4 mg QD, N = 40",(0) %
same,"Dry mouth, number of subjects","ABT-894 4 mg QD, N = 40",0 subjects
same,"Fatigue, % of subjects","ABT-894 4 mg QD, N = 40",(5.0) %
same,"Fatigue, number of subjects","ABT-894 4 mg QD, N = 40",2 subjects
same,"Feeling hot and cold, % of subjects","ABT-894 4 mg QD, N = 40",(0) %
same,"Feeling hot and cold, number of subjects","ABT-894 4 mg QD, N = 40",0 subjects
same,"Feeling jittery, % of subjects","ABT-894 4 mg QD, N = 40",(0) %
same,"Feeling jittery, number of subjects","ABT-894 4 mg QD, N = 40",0 subjects
same,"Headache, % of subjects","ABT-894 4 mg QD, N = 40",(12.5) %
same,"Headache, number of subjects","ABT-894 4 mg QD, N = 40",5 subjects
same,"Lethargy, % of subjects","ABT-894 4 mg QD, N = 40",(2.5) %
same,"Lethargy, number of subjects","ABT-894 4 mg QD, N = 40",1 subjects
same,"Muscle Strain, % of subjects","ABT-894 4 mg QD, N = 40",(0) %
same,"Muscle Strain, number of subjects","ABT-894 4 mg QD, N = 40",0 subjects
same,"Nasal congestion, % of subjects","ABT-894 4 mg QD, N = 40",(0) %
same,"Nasal congestion, number of subjects","ABT-894 4 mg QD, N = 40",0 subjects
same,"Nausea, % of subjects","ABT-894 4 mg QD, N = 40",(22.5) %
same,"Nausea, number of subjects","ABT-894 4 mg QD, N = 40",9 subjects
same,"Parathesia, % of subjects","ABT-894 4 mg QD, N = 40",(0) %
same,"Parathesia, number of subjects","ABT-894 4 mg QD, N = 40",0 subjects
same,"Sleep disturbances, % of subjects","ABT-894 4 mg QD, N = 40",(7.5) %
same,"Sleep disturbances, number of subjects","ABT-894 4 mg QD, N = 40",3 subjects
same,"Somnolence, % of subjects","ABT-894 4 mg QD, N = 40",(0) %
same,"Somnolence, number of subjects","ABT-894 4 mg QD, N = 40",0 subjects
same,"Upper RTI, % of subjects","ABT-894 4 mg QD, N = 40",(7.5) %
same,"Upper RTI, number of subjects","ABT-894 4 mg QD, N = 40",3 subjects
same,"Vomiting, % of subjects","ABT-894 4 mg QD, N = 40",(10.0) %
same,"Vomiting, number of subjects","ABT-894 4 mg QD, N = 40",4 subjects
same,"Any Adverse Event, number of subjects","Total ABT-894, N = 174",109 subjects
same,"Decreased appetite, % of subjects","Total ABT-894, N = 174",(1.1) %
same,"Decreased appetite, number of subjects","Total ABT-894, N = 174",2 subjects
same,"Diarrhea, % of subjects","Total ABT-894, N = 174",(3.4) %
same,"Diarrhea, number of subjects","Total ABT-894, N = 174",6 subjects
same,"Dizziness, % of subjects","Total ABT-894, N = 174",(6.3) %
same,"Dizziness, number of subjects","Total ABT-894, N = 174",11 subjects
same,"Dry mouth, % of subjects","Total ABT-894, N = 174",(1.7) %
same,"Dry mouth, number of subjects","Total ABT-894, N = 174",3 subjects
same,"Fatigue, % of subjects","Total ABT-894, N = 174",(5.2) %
same,"Fatigue, number of subjects","Total ABT-894, N = 174",9 subjects
same,"Feeling hot and cold, % of subjects","Total ABT-894, N = 174",(0) %
same,"Feeling hot and cold, number of subjects","Total ABT-894, N = 174",0 subjects
same,"Feeling jittery, % of subjects","Total ABT-894, N = 174",(0) %
same,"Feeling jittery, number of subjects","Total ABT-894, N = 174",0 subjects
same,"Headache, % of subjects","Total ABT-894, N = 174",(10.3) %
same,"Headache, number of subjects","Total ABT-894, N = 174",18 subjects
same,"Lethargy, % of subjects","Total ABT-894, N = 174",(0.6) %
same,"Lethargy, number of subjects","Total ABT-894, N = 174",1 subjects
same,"Muscle Strain, % of subjects","Total ABT-894, N = 174",(1.7) %
same,"Muscle Strain, number of subjects","Total ABT-894, N = 174",3 subjects
same,"Nasal congestion, % of subjects","Total ABT-894, N = 174",(1.7) %
same,"Nasal congestion, number of subjects","Total ABT-894, N = 174",3 subjects
same,"Nausea, number of subjects","Total ABT-894, N = 174",21 subjects
same,"Parathesia, % of subjects","Total ABT-894, N = 174",(0) %
same,"Parathesia, number of subjects","Total ABT-894, N = 174",0 subjects
same,"Sleep disturbances, % of subjects","Total ABT-894, N = 174",(7.5) %
same,"Sleep disturbances, number of subjects","Total ABT-894, N = 174",13 subjects
same,"Somnolence, % of subjects","Total ABT-894, N = 174",(4.6) %
same,"Somnolence, number of subjects","Total ABT-894, N = 174",8 subjects
same,"Upper RTI, % of subjects","Total ABT-894, N = 174",(4.0) %
same,"Upper RTI, number of subjects","Total ABT-894, N = 174",7 subjects
same,"Vomiting, % of subjects","Total ABT-894, N = 174",(3.4) %
same,"Vomiting, number of subjects","Total ABT-894, N = 174",6 subjects
same,Safety and tolerability,"adults with ADHD, all doses",generally was safe and well tolerated
